Experimental data reported in patent publication US11285156B2, “Substituted piperazines as KRAS G12C inhibitors” (Amgen Inc., priority 2018, dated 2022).
Read-outs that look alike come from different tables or passages of the source.

Assays:
[1] = target: GDP-bound KRAS protein (aa 1-169), containing both G12C and C118A amino acid substitutions (Homo sapiens (Human), UniProt P01116, C118A/G12C); test: Coupled nucleotide exchange assay (SOS-mediated nucleotide exchange, AlphaScreen); assay type: biochemical; conditions: 5 min compound pre-incubation; for IC50: read-out: Coupled exchange IC50 (5 min; μM)
Experimental: Coupled Nucleotide Exchange Assay:
Following compound pre-incubation, purified SOS protein (aa 564-1049) and GTP (Roche 10106399001) were added to the assay wells and incubated for an additional 30 min (for 5 min compound pre-incubation) or 1 hour (for 2 hour compound pre-incubation). […] The assay plates were then read on a PerkinElmer EnVision Multilabel Reader, using AlphaScreen® technology, and data were analyzed using a 4-parameter logistic model to calculate IC50 values.

[2] = test system: Phosphorylation of ERK1/2 in MIA PaCa-2 cells; test: Phospho-ERK1/2 MSD assay in MIA PaCa-2 cells; assay type: cell-based; conditions: read-out: p-ERK IC50 (2 h, MiaPaCa-2; μM), 2 h compound treatment, MIA PaCa-2 cells, EGF stimulated
Method in brief: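 Phospho-ERK1/2 measured by MSD electrochemiluminescence kit in RIPA lysates of MIA PaCa-2 cells. Cells were treated with compound titrations for 2 or 4 h at 37 °C, 5% CO2, followed by a 10 min pulse of 10 ng/mL EGF.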

[3] = test system: Phosphorylation of ERK1/2 in A549 cells; test: Phospho-ERK1/2 MSD assay in A549 cells; assay type: cell-based; conditions: read-out: p-ERK IC50 (2 h, A549; μM), 2 h compound treatment, A549 cells, EGF stimulated
Experimental: Phospho-ERK1/2 MSD Assay:
MIA PaCa-2 (ATCC® CRL-1420™) and A549 (ATCC® CCL-185™) cells were cultured in RPMI 1640 Medium (ThermoFisher Scientific 11875093) containing 10% fetal bovine serum (ThermoFisher Scientific 16000044) and 1× penicillin-streptomycin-glutamine (ThermoFisher Scientific 10378016). Sixteen hours prior to compound treatment, MIA PaCa-2 or A549 cells were seeded in 96-well cell culture plates at a density of 25,000 cells/well and incubated at 37° C., 5% CO2. A compound dose-response titration was diluted in growth media, added to appropriate wells of a cell culture plate, and then incubated at 37° C., 5% CO2 for 2 or 4 hours (see Table 15). Following compound treatment, cells were stimulated with 10 ng/mL EGF (Roche 11376454001) for 10 min, washed with ice-cold Dulbecco's phosphate-buffered saline, no Ca2+ or Mg2+ (ThermoFisher Scientific 14190144), and then lysed in RIPA buffer (50 mM Tris-HCl pH 7.5, 1% Igepal, 0.5% sodium deoxycholate, 150 mM NaCl. and 0.5% sodium dodecyl sulfate) containing protease inhibitors (Roche 4693132001) and phosphatase inhibitors (Roche 4906837001). Phosphorylation of ERK1/2 in compound-treated lysates was assayed using Phospho-ERK1/2 Whole Cell Lysate kits (Meso Scale Discovery K151DWD) according to the manufacturer's protocol.

Chain of GDP-bound KRAS protein (aa 1-169), containing both G12C and C118A amino acid substitutions (P01116 other isoform, or with tags, fused parts or gaps G12C/C118A): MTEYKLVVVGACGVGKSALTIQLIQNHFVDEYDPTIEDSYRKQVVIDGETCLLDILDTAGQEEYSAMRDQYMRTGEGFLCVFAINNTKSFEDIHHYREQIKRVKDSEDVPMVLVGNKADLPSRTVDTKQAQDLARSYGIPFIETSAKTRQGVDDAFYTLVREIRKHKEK

Compound | IC50 [1] [µM] | IC50 ([2]; Homo sapiens, MIA PaCa-2, 2 h) [µM] | IC50 ([3]; Homo sapiens, A549, 2 h) [µM] | Coupled exchange IC50 (5 min; μM) [1] [µM] | IC50 [2] [µM] | IC50 [3] [µM]
C=CC(=O)N1C[C@H](C)N(c2nc(=O)n(-c3c(C)ccnc3C(C)C)c3nc(-c4cc(C)ccc4F)c(Cl)cc23)C[C@H]1C (atropisomer, axis not shown; (M)) [Example 92-60, (M)-6-Chloro-4-[(2S,5R)-2,5-dimethyl-4-prop-2-enoyl-piperazin-1-yl]-7-(2-fluoro-5-methyl-phenyl)-1-(2-isopropyl-4-methyl-3 pyridyl)pyrido [2,3-d]pyrimidin-2-one] | 0.02 | 0.018 | > 7.5 |  |  | 
C=CC(=O)N1C[C@H](C)N(c2nc(=O)n(-c3c(C)ccnc3C(C)C)c3nc(-c4ccccc4C(F)(F)F)c(Cl)cc23)C[C@H]1C (atropisomer, axis not shown; (M)) [Example 92-23, (M)-6-Chloro-4-[(2S,5R)-2,5-dimethyl-4-prop-2-enoyl-piperazin-1-yl]-1-(2-isopropyl-4-methyl-3-pyridyl)-7-[2-(trifluoromethyl)phenyl]pyrido [2,3-d]pyrimidin-2-one] | 0.038 | 0.036 | > 7.5 |  |  | 
C=CC(=O)N1C[C@H](C)N(c2nc(=O)n(-c3c(C4CC4)ccnc3C(C)C)c3nc(-c4ccccc4C)c(Cl)cc23)C[C@H]1C (single isomer, unassigned) [Example 125-9] |  |  |  | 0.035 | 0.048 | > 7.5
C=CC(=O)N1C[C@H](C)N(c2nc(=O)n(-c3c(C)cc(CN(C)C)cc3C(C)C)c3nc(-c4c(O)cccc4F)c(F)cc23)C[C@H]1C [Example 80-21, 1-[4-[(Dimethylamino)methyl]-2-isopropyl-6-methyl-phenyl]-4-[(2S,5R)-2,5-dimethyl-4-prop-2-enoyl-piperazin-1-yl]-6-fluoro-7-(2-fluoro-6-hydroxy-phenyl)pyrido[2,3-d]pyrimidin-2-one] | 0.25 | 0.138 | > 7.5 |  |  | 
C=CC(=O)N1C[C@H](C)N(c2nc(=O)n(-c3c(C(C)C)cncc3C(C)C)c3nc(-c4c(O)cccc4F)c(F)cc23)C[C@H]1C [Example 101-1, 1-(3,5-Diisopropyl-4-pyridyl)-4-[(2S,5R)-2,5-dimethyl-4-prop-2-enoyl-piperazin-1-y]-6-fluoro-7-(2-fluoro-6-hydroxy-phenyl)pyrido[2,3-d]pyrimidin-2-one] | 0.134 |  |  |  | 0.116 | > 7.5
C=CC(=O)N1C[C@H](C)N(c2nc(=O)n(-c3c(C)ccnc3C(C)C)c3nc(-c4cccc(F)c4F)c(Cl)cc23)C[C@H]1C (atropisomer, axis not shown; (M)) [Example 92-66, (M)-6-Chloro-7-(2,3-difluorophenyl)-4-[(2S,5R)-2,5-dimethyl-4-prop-2-enoyl-piperazin-1-yl]-1-(2-isopropyl-4-methyl-3-pyridyl)pyrido [2,3-d]pyrimidin-2-one] | 0.034 | 0.033 | > 7.5 |  |  | 
C=CC(=O)N1C[C@H](C)N(c2nc(=O)n(-c3c(C(C)C)nc(OCCOC)nc3C(C)C)c3nc(-c4ccccc4F)c(Cl)cc23)C[C@H]1C [Example 156, 4-((2S,5R)-4-Acryloyl-2,5-dimethylpiperazin-1-yl)-6-chloro-1-(4,6-diisopropyl-2-(2-methoxyethoxy)pyrimidin-5-yl)-7-(2-fluorophenyl)pyrido[2,3-d]pyrimidin-2(1H)-one] | 0.369 | 0.148 | > 7.5 |  |  | 
C=CC(=O)N1C[C@H](C)N(c2nc(=O)n(-c3c(Cl)ncnc3C(C)C)c3nc(-c4ccccc4F)c(Cl)cc23)C[C@H]1C [Example 102-5, 6-Chloro-1-(4-chloro-6-isopropyl-pyrimidin-5-yl)-4-[(2S,5R)-2,5-dimethyl-4-prop-2-enoyl-piperazin-1-yl]-7-(2-fluorophenyl) pyrido[2,3-d]pyrimidin-2-one] | 0.071 |  | > 7.5 |  | 0.084 | 
C=CC(=O)N1C[C@H](C)N(c2nc(=O)n(-c3c(C)nc(C=C)nc3C(C)C)c3nc(-c4ccccc4F)c(Cl)cc23)C[C@H]1C (single isomer, unassigned) [Example 202] |  | 0.075 | > 7.5 | 0.071 |  | 
C=CC(=O)N1C[C@H](C)N(c2nc(=O)n(-c3c(C)ccnc3C(C)C)c3nc(-c4c(C)ccc5cn[nH]c45)c(Cl)cc23)C[C@H]1C (atropisomer, axis not shown; (M)) [Example 92-15, (M)-6-Chloro-4-[(2S,5R)-2,5-dimethyl-4-prop-2-enoyl-piperazin-1-yl]-1-(2-isopropyl-4-methyl-3-pyridyl)-7-(6-methyl-1H-indazol-7-yl)pyrido[2,3-d]pyrimidin-2-one] | 0.094 | 0.125 | > 7.5 |  |  | 
C=CC(=O)N1C[C@H](C)N(c2nc(=O)n(-c3c(C(C)C)ncnc3C3CC3)c3nc(-c4ccccc4F)c(Cl)cc23)C[C@H]1C (single isomer, unassigned) [Example 108-1-2] | 0.008 |  |  |  | 0.054 | > 7.5
C=CC(=O)N1C[C@H](C)N(c2nc(=O)n(-c3c(C)ccnc3C(C)C)c3nc(-c4ccccc4NC(=O)C(F)F)c(Cl)cc23)C[C@H]1C (atropisomer, axis not shown; (M)) [Example 129-11, (M)-N-[2-[6-Chloro-4-[(2S,5R)-2,5-dimethyl-4-prop-2-enoyl-piperazin-1-yl]-1-(2-isopropyl-4-methyl-3-pyridyl)-2-oxo-pyrido[2,3-d]pyrimidin-7-yl]phenyl]-2,2-difluoro-acetamide] | 0.152 | 0.247 | > 7.5 |  |  | 
C=CC(=O)N1C[C@H](C)N(c2nc(=O)n(-c3c(C(C)C)cnn3C(C)C)c3nc(-c4ccccc4F)c(Cl)cc23)C[C@H]1C [Example 100-1, 6-Chloro-1-(2,4-diisopropylpyrazol-3-yl)-4-[(2S,5R)-2,5-dimethyl-4-prop-2-enoyl-piperazin-1-yl]-7-(2-fluorophenyl)pyrido[2,3-d]pyrimidin-2-one] | 0.084 | 0.123 | > 7.5 |  |  | 
C=CC(=O)N1C[C@H](C)N(c2nc(=O)n(-c3c(C(C)C)cnn3C(C)C)c3nc(-c4ccccc4F)c(Cl)cc23)C[C@H]1C (single isomer, unassigned) [Example 100-1-1] | 0.061 |  |  |  | 0.091 | > 7.5
C=CC(=O)N1C[C@H](C)N(c2nc(=O)n(-c3c(C)nc(CC)nc3C(C)C)c3nc(-c4ccccc4F)c(Cl)cc23)C[C@H]1C (single isomer, unassigned) [Example 199] |  | 0.087 | > 7.5 | 0.132 |  | 
C=CC(=O)N1C[C@H](C)N(c2nc(=O)n(-c3c(C)ccnc3C(C)C)c3nc(-c4sccc4C)c(Cl)cc23)C[C@H]1C (atropisomer, axis not shown; (M)) [Example 93-1, (M)-6-Chloro-4-[(2S,5R)-2,5-dimethyl-4-prop-2-enoyl-piperazin-1-yl]-1-(2-isopropyl-4-methyl-3-pyridyl)-7-(3-methyl-2-thienyl)pyrido[2,3-d]pyrimidin-2-one] | 0.055 |  |  |  | 0.097 | > 7.5
C=CC(=O)N1C[C@H](C)N(c2nc(=O)n(-c3c(C(C)C)ncnc3C(C)C)c3nc(-c4cc(O)ccc4C)c(Cl)cc23)C[C@H]1C [Example 174, 6-Chloro-1-(4,6-diisopropylpyrimidin-5-yl)-4-[(2S,5R)-2,5-dimethyl-4-prop-2-enoyl-piperazin-1-yl]-7-(5-hydroxy-2-methyl-phenyl)pyrido[2,3-d]pyrimidin-2-one] |  | 0.082 | > 7.5 | 0.069 |  | 
C=CC(=O)N1C[C@H](C)N(c2nc(=O)n(-c3c(C)ccnc3C(C)C)c3nc(-c4c(F)cccc4[S+](C)[O-])c(Cl)cc23)C[C@H]1C (atropisomer, axis not shown; (M)) [Example 211-2, (M)-4-((2S,5R)-4-Acryloyl-2,5-dimethylpiperazin-1-yl)-6-chloro-7-(2-fluoro-6-(methylsulfinyl)phenyl)-1-(2-isopropyl-4-methylpyridin-3-yl)pyrido[2,3-d]pyrimidin-2(1H)-one] |  |  |  |  | 0.106 | > 7.5
C=CC(=O)N1C[C@H](C)N(c2nc(=O)n(-c3c(C)cc(C=C)nc3C(C)C)c3nc(-c4ccccc4F)c(Cl)cc23)C[C@H]1C (single isomer, unassigned) [Example 177-1] |  | 0.063 | 3.34 |  |  | 
